#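 These data come from cells grown in 96-well plates and exposed to compound for 48 hours at five concentrations. GI50: concentration for 50% inhibition of growth. At the TGI there is no net growth.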
# Key:
# Assay in all cases: NCI-60 cell line screen, 48 h
# TK-10 renal = system: TK-10 renal
# CAKI-1 renal = system: CAKI-1 renal
# CCRF-CEM leukemia = system: CCRF-CEM leukemia
# KM12 colon = system: KM12 colon
# ACHN renal = system: ACHN renal
# NCI-H460 lung = system: NCI-H460 lung
# A498 renal = system: A498 renal
# RPMI-8226 leukemia = system: RPMI-8226 leukemia
# EKVX NSCLC = system: EKVX NSCLC
# NCI/ADR-RES ovarian = system: NCI/ADR-RES ovarian
SMILES,TGI (TK-10 renal),TGI (CAKI-1 renal),TGI (CCRF-CEM leukemia),TGI (KM12 colon),TGI (ACHN renal),TGI (NCI-H460 lung),GI50 (A498 renal),TGI (A498 renal),GI50 (RPMI-8226 leukemia),TGI (RPMI-8226 leukemia),GI50 (CCRF-CEM leukemia),GI50 (ACHN renal),TGI (EKVX NSCLC),GI50 (TK-10 renal),GI50 (CAKI-1 renal),GI50 (KM12 colon),GI50 (NCI-H460 lung),GI50 (EKVX NSCLC),TGI (NCI/ADR-RES ovarian),GI50 (NCI/ADR-RES ovarian)
CC(C)(C)C(=O)O[C@@H]1COC2C(O)COC21 (stereo partly specified),> 100 µM,> 100 µM,> 100 µM,> 100 µM,> 100 µM,> 100 µM,–,–,–,–,–,–,–,–,–,–,–,–,–,–
O=C1c2c(O)cc(O)cc2OC(c2ccc(O)cc2O)C1O (stereo unspecified),> 100 µM,> 100 µM,> 100 µM,> 100 µM,> 100 µM,> 100 µM,> 100 µM,> 100 µM,> 100 µM,> 100 µM,> 100 µM,> 100 µM,> 100 µM,–,–,–,–,–,–,–
CCC(C(=O)[O-])C(=O)[O-].CCC(C(=O)[O-])C(=O)[O-].N.N.NCCCCCCN.[Pt+4].[Pt+4],15.1 µM,4.97 µM,2.87 µM,16.8 µM,13.4 µM,18.7 µM,8.85 µM,18.1 µM,3.66 µM,11.9 µM,1.1 µM,6.77 µM,33.3 µM,8.23 µM,2.25 µM,8.83 µM,7.99 µM,20.7 µM,–,–
CCCCCC/C=C\CCCCCCCCCC1=CC(=O)C=C(OC)C1=O,18.8 µM,9.65 µM,–,19.2 µM,11.6 µM,11.1 µM,–,13.5 µM,–,7.83 µM,–,–,12.5 µM,–,–,–,–,–,19.1 µM,–
Cc1cc(C)c(S(=O)(=O)ONC(=O)OC(C)(C)C)c(C)c1,> 100 µM,> 100 µM,> 100 µM,> 100 µM,> 100 µM,> 100 µM,–,> 100 µM,–,> 100 µM,–,–,> 100 µM,–,–,–,–,–,–,–
COc1cc([C@@H]2c3cc4c(cc3[C@@H](NC(=O)c3cccc(F)c3)C3COC(=O)[C@@H]32)OCO4)cc(OC)c1O (stereo partly specified),17.1 µM,22.5 µM,> 100 µM,7.2 µM,1.85 µM,7.52 µM,–,4.91 µM,–,5.85 µM,–,–,7.49 µM,–,–,–,–,–,–,–
CCOC(=O)Nc1ccc(-c2nc(-c3cccc(OC)c3)c(-c3ccnc(Br)c3)[nH]2)cc1,> 100 µM,–,> 100 µM,9.06 µM,> 100 µM,8.41 µM,1.94 µM,7.06 µM,0.794 µM,3.49 µM,2.75 µM,2.62 µM,8.8 µM,3.88 µM,–,2.51 µM,2.79 µM,2.45 µM,7.73 µM,2.35 µM
COc1ccc2c(c1)CCC1=CC3(CCC12C)SCCS3 (stereo unspecified),> 10 µM,> 10 µM,> 10 µM,> 10 µM,> 10 µM,–,–,–,–,> 10 µM,–,–,–,–,–,–,–,–,> 10 µM,–
O=C(CC(=O)C1CCOC1=O)C(=O)Nc1ccc(Cl)cc1Cl (stereo unspecified),> 100 µM,> 100 µM,> 100 µM,> 100 µM,> 100 µM,> 100 µM,–,> 100 µM,–,> 100 µM,–,–,> 100 µM,–,–,–,–,–,–,–
COc1ccc(/C(=N/NC(N)=O)C(c2ccc(OC)cc2)C2C(=O)Oc3ccccc32)cc1 (stereo unspecified),–,> 100 µM,> 100 µM,> 100 µM,–,> 100 µM,–,–,–,> 100 µM,–,–,–,–,–,–,–,–,–,–
COc1ccc(-c2cc(=O)c3c(O)cc(C)cc3o2)cc1OC,> 100 µM,–,> 100 µM,> 100 µM,> 100 µM,> 100 µM,–,–,–,> 100 µM,–,–,> 100 µM,–,–,–,–,–,> 100 µM,–
OC(c1ccccn1)C1CNc2ccccc21 (stereo unspecified),> 100 µM,> 100 µM,> 100 µM,> 100 µM,> 100 µM,> 100 µM,–,> 100 µM,–,> 100 µM,–,–,> 100 µM,–,–,–,–,–,–,–
O=C1C(Cl)=C(Nc2cccc(O)c2)C(=O)N1c1ccccc1Cl,–,> 100 µM,19.6 µM,> 100 µM,> 100 µM,> 100 µM,–,–,10.4 µM,35.1 µM,1.48 µM,> 100 µM,> 100 µM,–,40.3 µM,59.5 µM,41.2 µM,76.1 µM,> 100 µM,56.3 µM
COc1ccc(-c2c(-c3cc(OC)c4c(c3)OCO4)noc2N)cc1,49.7 µM,57.2 µM,24.9 µM,0.827 µM,39.8 µM,10.9 µM,0.0268 µM,0.342 µM,0.0511 µM,16.9 µM,0.0361 µM,0.108 µM,> 71.3 µM,10.4 µM,0.0424 µM,0.0161 µM,0.0339 µM,1.74 µM,–,–
O=C(O)Cn1c(=O)[nH]c(=O)c2c1ncn2Cc1ccccc1,> 100 µM,> 100 µM,> 100 µM,> 100 µM,> 100 µM,> 100 µM,–,> 100 µM,–,> 100 µM,–,–,> 100 µM,–,–,–,–,–,–,–
CC(=O)NNc1nc(C)c(C(/C=C/c2ccc(Cl)cc2)=N/NC(=O)C[N+](C)(C)C)s1,> 100 µM,> 100 µM,> 100 µM,> 100 µM,> 100 µM,> 100 µM,–,> 100 µM,–,–,–,–,> 100 µM,–,–,–,–,–,–,–
COC(=O)c1ccc(Cc2ccc(C(=O)OC)o2)o1,> 378 µM,> 378 µM,> 378 µM,> 378 µM,> 378 µM,> 378 µM,–,–,–,> 378 µM,–,–,> 378 µM,–,–,–,–,–,–,–
CCC[CH2][Sn]([CH2]CCC)([O]C(=O)C1CCC(=O)N1)[O]C(=O)C1CCC(=O)N1 (stereo unspecified),0.682 µM,0.356 µM,–,1.73 µM,0.512 µM,2.53 µM,0.21 µM,0.517 µM,0.124 µM,0.669 µM,–,0.22 µM,0.918 µM,0.24 µM,0.0757 µM,0.496 µM,1.27 µM,0.264 µM,–,–
Cc1ccc(C)c(NC(=O)CCc2nc(=S)[nH][nH]2)c1,> 100 µM,> 100 µM,> 100 µM,> 100 µM,> 100 µM,> 100 µM,–,> 100 µM,–,> 100 µM,–,–,> 100 µM,–,–,–,–,–,–,–
CCCCCCCCCCCCN(O)C(=O)c1ccccc1,> 100 µM,–,> 100 µM,> 100 µM,> 100 µM,–,–,88.3 µM,–,> 100 µM,–,–,84.2 µM,–,–,–,–,–,–,–

# Reference: PubChem BioAssay (NCI)
